{"source": "ChEMBL document CHEMBL4342507", "about": "“Targeting YAP Degradation by a Novel 1,2,4-Oxadiazole Derivative via Restoration of the Function of the Hippo Pathway” (ACS Med Chem Lett, 2020)", "key": {"[1]": {"target": "T1, Serine/threonine-protein kinase LATS1 (Homo sapiens) (UniProt O95835)", "T1 sequence (whole entry)": "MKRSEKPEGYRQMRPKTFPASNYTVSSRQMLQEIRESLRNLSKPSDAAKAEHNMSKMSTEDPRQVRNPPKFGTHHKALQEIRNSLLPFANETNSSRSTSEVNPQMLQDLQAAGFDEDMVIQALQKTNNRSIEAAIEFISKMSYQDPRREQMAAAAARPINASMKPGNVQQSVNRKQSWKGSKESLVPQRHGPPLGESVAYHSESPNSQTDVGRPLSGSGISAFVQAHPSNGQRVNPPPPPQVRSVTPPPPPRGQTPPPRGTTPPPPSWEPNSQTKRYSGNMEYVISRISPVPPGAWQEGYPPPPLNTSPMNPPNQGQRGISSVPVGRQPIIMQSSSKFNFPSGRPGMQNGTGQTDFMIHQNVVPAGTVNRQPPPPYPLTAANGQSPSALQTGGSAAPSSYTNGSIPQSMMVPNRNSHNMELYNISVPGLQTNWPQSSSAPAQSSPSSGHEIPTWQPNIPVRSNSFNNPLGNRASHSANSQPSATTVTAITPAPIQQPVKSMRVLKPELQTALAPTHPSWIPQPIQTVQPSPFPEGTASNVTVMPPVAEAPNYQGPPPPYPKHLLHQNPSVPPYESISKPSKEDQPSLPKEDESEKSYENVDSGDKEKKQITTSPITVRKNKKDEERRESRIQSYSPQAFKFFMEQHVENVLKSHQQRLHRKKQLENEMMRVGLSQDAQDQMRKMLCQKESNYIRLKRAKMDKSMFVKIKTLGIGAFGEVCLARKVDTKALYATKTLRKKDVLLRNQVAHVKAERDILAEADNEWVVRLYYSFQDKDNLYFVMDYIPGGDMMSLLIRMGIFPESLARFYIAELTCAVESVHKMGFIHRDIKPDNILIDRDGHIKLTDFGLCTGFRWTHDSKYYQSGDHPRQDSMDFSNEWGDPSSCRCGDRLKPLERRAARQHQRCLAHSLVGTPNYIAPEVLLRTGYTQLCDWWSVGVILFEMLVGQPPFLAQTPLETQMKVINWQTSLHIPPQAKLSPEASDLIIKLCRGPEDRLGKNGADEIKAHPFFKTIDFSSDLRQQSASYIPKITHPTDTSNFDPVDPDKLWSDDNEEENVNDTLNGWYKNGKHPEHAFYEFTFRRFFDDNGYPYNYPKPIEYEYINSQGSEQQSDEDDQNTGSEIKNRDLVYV", "experiment": "Activation of LATS1 in human SUM159 cells assessed as increase in YAP phosphorylation at Ser397 at 0.25 to 1.5 uM measured after 12 to 24 hrs by immunoblotting analysis", "type": "cell-based"}, "SUM-159-PT": {"system": "SUM-159-PT", "experiment": "Cytostatic activity against human SUM159 cells assessed as cell viability at concentration of greater than IC50 measured up to 72 hrs by MTT assay", "type": "functional, cell-based"}, "[2]": {"target": "T1, Serine/threonine-protein kinase LATS1 (Homo sapiens)", "experiment": "Activation of LATS1 in human SUM159 cells assessed as increase in YAP phosphorylation at Ser397 at 0.25 to 1.5 uM measured after 24 to 48 hrs by immunoblotting analysis", "type": "cell-based"}, "MDA-MB-231": {"system": "MDA-MB-231", "experiment": "Cytostatic activity against human MDA-MB-231 cells assessed as cell viability at concentration of greater than IC50 measured up to 72 hrs by MTT assay", "type": "functional, cell-based"}, "[3]": {"target": "T1, Serine/threonine-protein kinase LATS1 (Homo sapiens)", "experiment": "Activation of LATS1 in triple-negative human SUM159 cells assessed as effect on YAP mRNA level at 0.25 to 1 uM measured after 12 hrs by Trizol reagent based RT-PCR analysis"}, "[4]": {"target": "T1, Serine/threonine-protein kinase LATS1 (Homo sapiens)", "experiment": "Activation of LATS1 in human MDA-MB-231 cells assessed as induction of YAP degradation by measuring suppression of YAP protein expression at 0.5 uM pretreated with compound for 24 hrs followed by incubation with protein synthesis inhibitor, CHX up to 48 hrs by Western blot analysis", "type": "cell-based"}, "[5]": {"target": "T1, Serine/threonine-protein kinase LATS1 (Homo sapiens)", "experiment": "Activation of LATS1 in human SUM159 cells assessed as increase in phosphorylation at Thr1079 residue measured after 12 hrs by Western blot analysis", "type": "cell-based"}, "Homo sapiens": {"species_on_record": "Homo sapiens", "experiment": "Activation of MOB in human PC3 cells assessed as phosphorylation at Thr35 residue at 0.25 to 1.25 uM measured after 24 hrs by Western blot analysis", "type": "cell-based"}}, "note": "Activity calls are given as the source filed them. No cut-off for these calls is given here."}
{"smiles": "CC(=O)Nc1ccc(NC(=O)Nc2cccc(-c3nc(-c4ccc(NC(=O)c5cccnc5)cc4Cl)no3)c2)cc1C(F)(F)F", "values": [{"measurement": "Activity", "setting": "[1]", "result": "Active"}, {"measurement": "Activity", "setting": "SUM-159-PT", "result": "Active"}, {"measurement": "Activity", "setting": "[2]", "result": "inactive"}, {"measurement": "Activity", "setting": "MDA-MB-231", "result": "Active"}, {"measurement": "Activity", "setting": "[3]", "result": "inactive"}, {"measurement": "Activity", "setting": "[4]", "result": "Active"}, {"measurement": "Activity", "setting": "[5]", "result": "Dose-dependent effect"}, {"measurement": "Activity", "setting": "Homo sapiens", "result": "inactive"}]}
